Test results taken from patent publication US9981928B2, “Aryl sulfide derivatives and aryl sulfoxide derivatives as acaricides and insecticides” (BAYER CROPSCIENCE AKTIENGESELLSCHAFT, priority 2013, dated 2018).

Assays:
[1] = test system: greenhouse red spider mite (Tetranychus urticae); experiment: Tetranychus urticae spray test, OP-resistant (TETRUR), bean leaf disks; assay type: in vivo; settings: bean leaf disks, after 6 days
Procedure, shortened: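 Bean leaf disks carrying all stages of OP-resistant Tetranychus urticae sprayed with compound in acetone/dimethylformamide diluted in emulsifier water. Kill assessed after 6 days as % efficacy, 100% meaning all mites dead.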

[2] = log P determination by HPLC on reversed-phase columns (C 18), analogously to OECD Guideline 117; assay type: physicochemical; settings: HPLC reversed-phase C 18; for logP (HCOOH): LC-MS in the acidic range, pH 2.7, 0.1% aqueous formic acid / acetonitrile; for logP (neutral): LC-MS in the neutral range, pH 7.8, 0.001 molar aqueous ammonium hydrogencarbonate / acetonitrile
Procedure, shortened: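 Reversed-phase C18 HPLC per OECD 117 with LC-MS detection and a linear 10→95% acetonitrile gradient. Acidic log P run at pH 2.7 with 0.1% formic acid in both eluents. Neutral log P run at pH 7.8 with 0.001 M aqueous ammonium hydrogencarbonate.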

SMILES | efficacy in % ([1]; application rate 500 g/ha) [%] | logP (HCOOH) [2] | logP (neutral) [2] | efficacy in % ([1]; application rate 100 g/ha) [%]
Cc1cc(F)c(-n2c(=O)n(C(C)(C)C)c(=O)n2CC(F)(F)F)cc1SCC(F)(F)F [Example 147] | 100 | 4.34 | 4.28 | –
C=CCn1c(=O)n(CC(F)(F)F)n(-c2cc(SCC(F)(F)F)c(C)cc2F)c1=O [Example 154] | 100 | 3.62 | 3.64 | –
Cc1cc(F)c(-n2c(=O)n(-c3ccccc3)c(=O)n2CC(F)(F)F)cc1SCC(F)(F)F [Example 155] | 90 | 3.93 | 3.90 | –
Cc1cc(F)c(-n2c(=O)n(CC(F)F)c(=O)n2CC(F)(F)F)cc1SCC(F)(F)F [Example 156] | 90 | 3.44 | 3.51 | –
COCCCn1c(=O)n(C)n(-c2cc(SCC(F)(F)F)c(C)cc2F)c1=O [Example 159] | 100 | 2.96 | 2.95 | –
CCCn1c(=O)n(C)n(-c2cc(SCC(F)(F)F)c(C)cc2F)c1=O [Example 160] | – | 3.28 | 3.22 | 100
Cc1cc(F)c(-n2c(=O)n(CC3CC3)c(=O)n2C)cc1SCC(F)(F)F [Example 161] | 100 | 3.39 | 3.34 | –
Cc1cc(F)c(-n2c(=O)n(-c3ccccc3)c(=O)n2C)cc1SCC(F)(F)F [Example 162] | – | 3.42 | 3.27 | 100
Cc1cc(F)c(-n2c(=O)n(-c3ccccc3)c(=O)n2C)cc1[S+]([O-])CC(F)(F)F (stereo not drawn) [Example 163] | 90 | 2.44 | 2.38 | –
Cc1cc(F)c(-n2c(=O)n(C3CC3)c(=O)n2CC(F)(F)F)cc1[S+]([O-])CC(F)(F)F (stereo not drawn) [Example 164] | 90 | 2.58 | 2.54 | –
C=CCn1c(=O)n(C2CC2)c(=O)n1-c1cc([S+]([O-])CC(F)(F)F)c(C)cc1F (stereo not drawn) [Example 165] | 90 | 2.32 | 2.30 | –
C=CCn1c(=O)n(CC(F)(F)F)n(-c2cc([S+]([O-])CC(F)(F)F)c(C)cc2F)c1=O (stereo not drawn) [Example 166] | 90 | 2.72 | 2.89 | –
Cc1cc(F)c(-n2c(=O)n(-c3ccccc3)c(=O)n2CC(F)(F)F)cc1[S+]([O-])CC(F)(F)F (stereo not drawn) [Example 167] | 90 | 3.05 | 3.01 | –
Cc1cc(F)c(-n2c(=O)n(CC(F)F)c(=O)n2CC(F)(F)F)cc1[S+]([O-])CC(F)(F)F (stereo not drawn) [Example 168] | 90 | 2.60 | 2.58 | –
Cc1cc(F)c(-n2c(=O)n(CC3CC3)c(=O)n2C)cc1[S+]([O-])CC(F)(F)F (stereo not drawn) [Example 169] | – | 2.30 | 2.33 | 90
COCCCn1c(=O)n(C)n(-c2cc([S+]([O-])CC(F)(F)F)c(C)cc2F)c1=O (stereo not drawn) [Example 170] | 90 | 1.97 | 1.98 | –
CCn1c(=O)n(C2CC2)c(=O)n1-c1cc([S+]([O-])CC(F)(F)F)c(C)cc1F (stereo not drawn) [Example 171] | 100 | 2.18 | 2.15 | –
CCCn1c(=O)n(C2CC2)c(=O)n1-c1cc([S+]([O-])CC(F)(F)F)c(C)cc1F (stereo not drawn) [Example 172] | 90 | 2.46 | 2.42 | –
Cc1cc(F)c(N2C(=O)C(C)(C)C(=O)N2c2ccccc2)cc1SCC(F)(F)F [Example 173] | 90 | 3.64 | 3.58 | –
